From patent US5686458A, “Quinazoline deriviates for treating peptic ulcer” (Yuhan Corporation, priority 1992, dated 1997)
Several values for one entry are separate records, joined by “and”; a condition that tells them apart may be missing. Identical values can stand only once. Like-named read-outs stand apart in the source and are kept apart here.

Assays:
[1] = target: T1, Proton Pump (H^+ /K^+ ATPase) (Oryctolagus cuniculus, UniProt P27112); test: Inhibition of Proton Pump (H+/K+ ATPase) Activity, in vitro enzyme reaction (Experiment 1); type: biochemical, New Zealand white rabbit
T1 construct: The microsomes thus obtained were used as an enzyme source of the in vitro enzyme reaction study of proton pump; from tissue; host or cells: rabbit stomach, mucosal scrapings, microsomes (180,000 g pellet)
T1 sequence (P27112 whole entry): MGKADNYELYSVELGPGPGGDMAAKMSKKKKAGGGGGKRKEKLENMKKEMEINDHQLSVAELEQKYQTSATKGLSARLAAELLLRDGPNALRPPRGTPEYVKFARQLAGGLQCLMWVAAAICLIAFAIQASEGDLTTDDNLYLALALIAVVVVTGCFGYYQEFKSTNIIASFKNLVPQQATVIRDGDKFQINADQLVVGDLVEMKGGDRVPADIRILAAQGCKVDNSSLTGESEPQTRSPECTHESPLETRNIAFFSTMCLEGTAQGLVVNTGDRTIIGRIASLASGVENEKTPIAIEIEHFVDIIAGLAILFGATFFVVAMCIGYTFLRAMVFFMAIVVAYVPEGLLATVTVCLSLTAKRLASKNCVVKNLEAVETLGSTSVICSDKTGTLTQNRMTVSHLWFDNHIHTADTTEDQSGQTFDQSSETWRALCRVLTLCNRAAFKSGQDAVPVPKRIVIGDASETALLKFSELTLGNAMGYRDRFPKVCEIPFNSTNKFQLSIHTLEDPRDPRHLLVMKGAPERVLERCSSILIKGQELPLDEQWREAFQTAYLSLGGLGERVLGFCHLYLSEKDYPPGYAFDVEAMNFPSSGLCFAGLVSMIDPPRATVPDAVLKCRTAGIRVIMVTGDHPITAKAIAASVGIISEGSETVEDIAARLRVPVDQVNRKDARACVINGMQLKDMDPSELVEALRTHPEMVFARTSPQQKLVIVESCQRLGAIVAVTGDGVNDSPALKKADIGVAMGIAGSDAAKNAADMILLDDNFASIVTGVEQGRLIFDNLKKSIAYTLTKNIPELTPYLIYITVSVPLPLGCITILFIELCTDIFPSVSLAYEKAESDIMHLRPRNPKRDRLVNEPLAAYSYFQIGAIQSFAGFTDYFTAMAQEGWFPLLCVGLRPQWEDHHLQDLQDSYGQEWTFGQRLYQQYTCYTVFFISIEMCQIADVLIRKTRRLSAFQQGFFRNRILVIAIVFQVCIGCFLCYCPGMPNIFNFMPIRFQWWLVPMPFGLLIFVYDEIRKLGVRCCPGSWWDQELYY
T1 sequence (P18597 whole entry partner): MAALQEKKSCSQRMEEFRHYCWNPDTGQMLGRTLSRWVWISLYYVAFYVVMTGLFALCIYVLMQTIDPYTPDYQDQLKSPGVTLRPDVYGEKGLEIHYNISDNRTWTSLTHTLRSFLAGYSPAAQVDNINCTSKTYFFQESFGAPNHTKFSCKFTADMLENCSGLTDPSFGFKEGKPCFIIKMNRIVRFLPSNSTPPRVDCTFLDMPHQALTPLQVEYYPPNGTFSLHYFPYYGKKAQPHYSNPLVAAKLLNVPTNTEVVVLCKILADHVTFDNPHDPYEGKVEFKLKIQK
Procedure, shortened: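 Rabbit gastric mucosal microsomes (100 μg/ml) in 50 mM Tris-HCl pH 7.2 with 8 mM MgCl2, 100 mM KCl and 20 mM NH4Cl were preincubated with compound for 15 min at 37 °C. Reaction ran 30 min at 37 °C with 6.7 mM ATP; released phosphate was measured. K+-stimulated activity (Mg/K minus Mg alone) gave IC50 via Litchfield-Wilcoxon.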

[2] = system: proton pump; settings: background statement; cited from earlier work
[3] = target: T2, H^+ /K^+ ATPase, gastric vesicles (Sus scrofa, UniProt P19156); test: Reversibility of inhibition, Dilution and Washout method (Experiment 4-3); type: biochemical, pig; settings: for Reversibility of the inhibition of the enzyme activity: conclusion from Table 4; for Inhibition of H+/K+ ATPase activity after Dilution and Washout: diluted 50 times; for Inhibition of H+/K+ ATPase activity after Dilution and Washout / Inhibition of H+/K+ ATPase activity before Dilution and Washout: pH 6.4, Example 34 at 6 μM, omeprazole and SK&F96067 at 60 μM
T2 construct: Gastric vesicles were prepared from pig stomach; from tissue; host or cells: pig stomach, lyophilized gastric vesicles
T2 sequence (P19156 2-1034 limits assumed): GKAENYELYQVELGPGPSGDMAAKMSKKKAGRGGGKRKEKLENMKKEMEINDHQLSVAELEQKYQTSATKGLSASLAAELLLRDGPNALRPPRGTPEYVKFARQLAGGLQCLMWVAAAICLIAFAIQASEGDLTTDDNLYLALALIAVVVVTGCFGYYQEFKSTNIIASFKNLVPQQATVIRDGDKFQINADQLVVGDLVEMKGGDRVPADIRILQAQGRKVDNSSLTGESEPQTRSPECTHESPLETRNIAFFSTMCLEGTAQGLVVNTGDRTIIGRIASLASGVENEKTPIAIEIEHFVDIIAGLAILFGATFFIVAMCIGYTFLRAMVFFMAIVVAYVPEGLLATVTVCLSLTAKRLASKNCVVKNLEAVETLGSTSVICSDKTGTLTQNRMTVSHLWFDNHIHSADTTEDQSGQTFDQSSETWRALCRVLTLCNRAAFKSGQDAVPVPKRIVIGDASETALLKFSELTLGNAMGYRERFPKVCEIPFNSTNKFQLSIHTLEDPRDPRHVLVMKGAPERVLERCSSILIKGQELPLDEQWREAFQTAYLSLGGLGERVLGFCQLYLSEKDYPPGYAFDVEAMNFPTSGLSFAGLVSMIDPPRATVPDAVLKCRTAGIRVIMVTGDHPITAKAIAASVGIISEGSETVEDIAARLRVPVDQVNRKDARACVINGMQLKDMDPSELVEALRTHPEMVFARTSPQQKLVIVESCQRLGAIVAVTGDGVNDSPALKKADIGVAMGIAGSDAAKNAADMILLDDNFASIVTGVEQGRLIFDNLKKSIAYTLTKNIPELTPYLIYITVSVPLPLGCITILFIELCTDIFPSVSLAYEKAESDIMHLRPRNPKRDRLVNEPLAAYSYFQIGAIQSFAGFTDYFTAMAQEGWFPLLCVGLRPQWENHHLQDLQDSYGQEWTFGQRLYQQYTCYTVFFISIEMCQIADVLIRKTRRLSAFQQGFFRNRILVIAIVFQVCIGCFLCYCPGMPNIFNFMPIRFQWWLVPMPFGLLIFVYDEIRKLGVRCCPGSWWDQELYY
T2 sequence (P18434 whole entry partner): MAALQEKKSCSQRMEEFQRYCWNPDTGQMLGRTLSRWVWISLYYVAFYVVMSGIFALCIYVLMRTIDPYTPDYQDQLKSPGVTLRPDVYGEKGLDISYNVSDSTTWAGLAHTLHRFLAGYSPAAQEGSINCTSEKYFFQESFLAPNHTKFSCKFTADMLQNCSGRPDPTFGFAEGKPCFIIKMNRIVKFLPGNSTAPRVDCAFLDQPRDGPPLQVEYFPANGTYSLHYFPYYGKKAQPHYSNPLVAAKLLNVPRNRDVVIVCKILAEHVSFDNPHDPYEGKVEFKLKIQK
Experimental: The vesicles were lyophilized and kept at -70° C.
To all […] groups, was added 100 μl of lyophilized vesicles prepared in Experiment 4-1 at the concentration of 100 μg protein 1 ml. Then, 5 mM Pipes/Tris buffer(pH 6.4 ) was added to the three groups until the volume of test tubes became 150 μl. After the preincubation for 15 minutes, H^+ /K^+ ATPase activity was measured in accordance with the same procedures as in Experiment 4-2. The concentrations of the test substances as indicated above are the final concentrations.
After the completion of preincubation, each group was diluted 50 times with 5 mM Pipes/Tris buffer(pH 6.4), and then centrifuged for 60 minutes by means of Beckman ultracentrifuge(Model L8-80). The supernatant was discarded and the pellet was suspended with 5 mM Pipes/Tris buffer pH 6.4 until the volume became the same as the preincubation volume.

[4] = system: gastric secretion stimulated by histamine; test: Anti-secretory effects when gastric secretion is stimulated by histamine (Experiment 3-1); type: in vivo, Sprague-Dawley male rats; settings: intravenous; for ED50: Rattus norvegicus, read-out: ED50, gastric secretion inhibition
Experimental: In accordance with the method [see Ghosh and Shild, et al., British Journal of pharmacology 13:54-61 (1958)], anti-secretory effects of the test substances were studied in this Experiment. Sprague-Dawley male rats having a body weight of 200±20 g were divided into 3 groups, Group 1 to be administered with the compound of Example 34, Group 2 to be administered with SK&F96067[see Keeling, D. […] The rats of each Group, deprived of food for 24 hours before the experiment with free access to water, were anesthetized by intraperitoneally administering of 1.5 g/kg of 20% aqueous urethane solution and positioned on the test plate which was heated and maintained at 37° C. The anesthetized rats were cannulated at the right jugular vein for the administration of the test compounds and the left jugular vein for the administration of stimulating substances. After an abdominal incision, tubes were inserted into the esophagus and duodenum, each of which was connected with saline in a thermostat and a fraction collector. […] To the left jugular vein, histamine was administered as a gastric secretion stimulator. […] The gastric secretion inhibition (%) of the test compounds was calculated from the following equation: The gastric secretion inhibition (%) of the test compounds =(A-C)/(A-B)×100 . . . (IV) in which […]

| Structure (SMILES) | IC50 ([1]; comparative compound, value printed on the line of each test compound, read-out: IC50 of Omeprazole, inhibition (50%) of the proton pump activity) | Reversibility of the proton pump inhibition [2] | Reversibility of the inhibition of the enzyme activity [3] | Inhibition of H+/K+ ATPase activity after Dilution and Washout [3] [%] | Inhibition of H+/K+ ATPase activity before Dilution and Washout [3] [%] | The gastric secretion inhibition (%) ([4]; 0.1 mg/kg) | The gastric secretion inhibition (%) ([4]; 0.3 mg/kg) | The gastric secretion inhibition (%) ([4]; 1.0 mg/kg) | ED50 [4] [mg/kg] | Effect ratio ([1]; IC50 of Omeprazole / IC50 of test compound) | IC50 ([1]; K+-stimulated H+/K+ ATPase activity, rabbit gastric microsomes, pH 7.2, 37° C., 15 min prereaction, 30 min reaction, read-out: IC50 of test compound, inhibition (50%) of the proton pump activity) [µM] | The gastric secretion inhibition (%) ([4]; 0.5 mg/kg) | The gastric secretion inhibition (%) ([4]; 3.0 mg/kg) |
| --- | --- | --- | --- | --- | --- | --- | --- | --- | --- | --- | --- | --- | --- |
| COc1ccc2[nH]c([S+]([O-])Cc3ncc(C)c(OC)c3C)nc2c1 (stereo not drawn) [Omeprazole, omeprazole, reference compound] | 9.5 µM and 9.3 µM | irreversible | irreversible | 67 | 80 | 8.0 | 49.4 | 102.3 | 0.29 | – | – | – | – |
| COc1cccc2c(N3CCc4ccccc4C3C)nc(Nc3ccc(F)cc3C)nc12.Cl (stereo not drawn) [Example 34, 8-Methoxy-2-(4-Fluoro-2-Methyl-Phenylamino)-4-(1-Methyl-1,2,3,4-Tetrahydroisoquinoline-2-Yl)Quinazoline Hydrochloride] | – | – | reversible | 16 | 84 | – | – | 52.0 | 0.9 | 5.45 | 1.7 | 44.4 | 76.5 |
